Measurements as given in US10485803B2, “Pyrimidine compounds as JAK kinase inhibitors” (THERAVANCE BIOPHARMA R&D IP, LLC, priority 2016, dated 2019).
“Also recorded” adds a separate entry of the source. Like-named read-outs stand apart in the source and are kept apart here.

Assays:
JAK3 = JAK3 (Homo sapiens (Human), UniProt P52333); assay: LanthaScreen JAK biochemical assay, JAK3
Protocol: (§1) A panel of four LanthaScreen JAK biochemical assays (JAK1, 2, 3 and Tyk2) were carried in a common kinase reaction buffer (50 mM HEPES, pH 7.5, 0.01% Brij-35, 10 mM MgCl2, and 1 mM EGTA). Recombinant GST-tagged JAK enzymes and a GFP-tagged STAT1 peptide substrate were obtained from Life Technologies.
(§2) Serially diluted compounds were pre-incubated with each of the four JAK enzymes and the substrate in white 384-well microplates (Corning) at ambient temperature for 1 h. ATP was subsequently added to initiate the kinase reactions in 10 μl total volume, with 1% DMSO. […] The plates were allowed to incubate at ambient temperature for 1 h before being read on the EnVision reader (Perkin Elmer).
(§3) For dose-response analysis, percent inhibition data were plotted vs. compound concentrations, and IC50 values were determined from a 4-parameter robust fit model with the Prism software (GraphPad Software). Results were expressed as pIC50 (negative logarithm of IC50) and subsequently converted to pKi (negative logarithm of dissociation constant, Ki) using the Cheng-Prusoff equation.

[1] = test system: oxazolone-induced colitis; assay: Mouse model of oxazolone-induced colitis; assay type: in vivo, BALB/C mice; conditions: mice, PO, 1, 3, and/or 10 mg/kg BID
Protocol: Oxazolone-induced colitis is an experimental model that has a histological resemblance to human ulcerative colitis (Heller et al. […], 2002, 17, 629-638). Adult BALB/C mice from Harlan were used in the assay. On day 1, animals were lightly anesthetized with isoflurane and the hairs between the shoulder were carefully removed before oxazolone (4%, 150 μL, 4:1 acetone: olive oil formulation) or vehicle solution was slowly applied for skin sensitization. Seven days after skin sensitization, the mice were fasted overnight, anesthetized with isoflurane inhalation, and a 1 mL syringe equipped with a 3.5-F catheter, filled with oxazolone solution, was inserted carefully about 4 cm into the colon of the mouse. Following insertion, 50 μL of the oxazolone solution (1%, 1:1 ethanol:water formulation) was injected very slowly (over 30 sec using an injection pump) into the colon. The catheter was removed and the mice were held vertically (head down) for 2 min to ensure that the entire oxazolone solution remained inside the colon. Drug treatment (PO, BID or TID) or vehicle was initiated a day prior to the oxazolone intrarectal (IR) challenge. Two-day post oxazolone intrarectal challenge, the Disease Activity Index (DAI) was assessed by treatment-blinded experimenters for each mouse according to the criteria score: stool consistency score (0, normal; 2, loose; 4, diarrhea), gross bleeding score (0, absence; 2, blood tinged; 4, presence), and weight loss score (0, none; 1, 1%-5%; 2, 5%-10%; 3, 10%-20%; 4, more than 20%); DAI=average of (stool consistency score+gross bleeding score+weight loss score).

Tyk2 = Tyk2 (Homo sapiens (Human), UniProt P29597); assay: LanthaScreen JAK biochemical assay, Tyk2
Chain of Tyk2 (P29597 whole entry): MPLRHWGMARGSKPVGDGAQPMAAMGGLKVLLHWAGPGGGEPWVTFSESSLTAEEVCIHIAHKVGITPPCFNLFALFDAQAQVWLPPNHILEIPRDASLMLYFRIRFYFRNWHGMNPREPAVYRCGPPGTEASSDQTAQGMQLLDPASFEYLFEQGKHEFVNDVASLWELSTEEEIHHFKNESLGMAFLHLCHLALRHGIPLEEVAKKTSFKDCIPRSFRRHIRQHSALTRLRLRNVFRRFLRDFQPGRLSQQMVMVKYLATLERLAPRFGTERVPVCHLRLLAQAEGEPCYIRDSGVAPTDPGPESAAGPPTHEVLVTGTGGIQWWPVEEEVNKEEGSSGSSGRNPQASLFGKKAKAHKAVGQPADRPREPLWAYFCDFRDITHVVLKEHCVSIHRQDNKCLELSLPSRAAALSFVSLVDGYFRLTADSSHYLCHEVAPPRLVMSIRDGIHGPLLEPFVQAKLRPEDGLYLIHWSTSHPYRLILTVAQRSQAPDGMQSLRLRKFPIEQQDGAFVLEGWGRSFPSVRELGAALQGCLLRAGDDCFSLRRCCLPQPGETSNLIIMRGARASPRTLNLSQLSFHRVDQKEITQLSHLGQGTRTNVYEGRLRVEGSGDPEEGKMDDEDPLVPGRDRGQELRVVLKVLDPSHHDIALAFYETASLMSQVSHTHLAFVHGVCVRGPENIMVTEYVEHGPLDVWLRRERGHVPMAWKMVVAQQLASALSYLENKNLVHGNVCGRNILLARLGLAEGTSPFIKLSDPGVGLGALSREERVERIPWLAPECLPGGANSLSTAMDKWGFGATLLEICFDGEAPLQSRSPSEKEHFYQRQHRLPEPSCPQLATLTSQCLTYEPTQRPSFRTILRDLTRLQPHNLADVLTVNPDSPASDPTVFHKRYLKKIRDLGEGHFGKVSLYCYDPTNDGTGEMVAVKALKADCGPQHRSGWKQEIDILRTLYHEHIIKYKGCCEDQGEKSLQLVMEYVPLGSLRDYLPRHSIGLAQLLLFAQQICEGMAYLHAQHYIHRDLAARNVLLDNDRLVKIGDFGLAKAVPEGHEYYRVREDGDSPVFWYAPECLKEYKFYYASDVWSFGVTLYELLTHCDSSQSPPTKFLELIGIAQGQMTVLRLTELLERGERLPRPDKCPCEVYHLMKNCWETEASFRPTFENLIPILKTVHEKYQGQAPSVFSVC
Protocol: as §1, §2, §3

JAK1 = JAK1 (Homo sapiens (Human), UniProt P23458); assay: LanthaScreen JAK biochemical assay, JAK1
Chain of JAK1 (P23458 whole entry): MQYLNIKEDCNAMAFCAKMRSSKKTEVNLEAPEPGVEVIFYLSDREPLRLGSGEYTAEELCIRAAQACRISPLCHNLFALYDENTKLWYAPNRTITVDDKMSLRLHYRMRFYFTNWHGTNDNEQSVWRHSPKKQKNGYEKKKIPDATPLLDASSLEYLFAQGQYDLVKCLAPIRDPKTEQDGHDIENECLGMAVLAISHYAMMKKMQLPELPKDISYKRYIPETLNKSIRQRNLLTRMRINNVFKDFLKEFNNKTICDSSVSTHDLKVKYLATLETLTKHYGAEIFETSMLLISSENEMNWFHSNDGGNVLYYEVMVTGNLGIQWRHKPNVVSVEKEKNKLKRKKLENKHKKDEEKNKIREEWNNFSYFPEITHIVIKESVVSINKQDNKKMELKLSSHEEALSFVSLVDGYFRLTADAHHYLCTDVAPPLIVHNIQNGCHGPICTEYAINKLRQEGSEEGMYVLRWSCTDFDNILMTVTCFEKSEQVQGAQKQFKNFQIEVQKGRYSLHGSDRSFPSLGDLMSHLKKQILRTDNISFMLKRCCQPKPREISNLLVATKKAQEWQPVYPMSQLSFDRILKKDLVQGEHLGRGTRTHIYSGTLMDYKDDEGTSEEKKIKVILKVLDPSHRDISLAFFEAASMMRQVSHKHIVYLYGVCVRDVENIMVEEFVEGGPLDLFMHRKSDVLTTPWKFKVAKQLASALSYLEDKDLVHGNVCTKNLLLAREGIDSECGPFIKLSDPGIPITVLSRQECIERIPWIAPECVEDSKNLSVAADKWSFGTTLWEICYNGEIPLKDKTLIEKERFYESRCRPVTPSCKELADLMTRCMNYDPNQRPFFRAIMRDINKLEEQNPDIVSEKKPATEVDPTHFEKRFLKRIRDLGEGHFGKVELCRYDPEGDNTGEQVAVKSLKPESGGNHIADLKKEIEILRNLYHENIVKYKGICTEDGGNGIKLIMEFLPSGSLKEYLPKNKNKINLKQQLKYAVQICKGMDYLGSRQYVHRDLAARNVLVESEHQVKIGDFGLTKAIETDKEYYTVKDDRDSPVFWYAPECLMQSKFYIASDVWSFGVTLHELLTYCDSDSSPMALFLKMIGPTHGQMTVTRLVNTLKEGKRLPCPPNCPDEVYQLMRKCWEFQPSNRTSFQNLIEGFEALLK
Protocol: as §1, §2, §3

JAK2 = JAK2 (Homo sapiens (Human), UniProt O60674); assay: LanthaScreen JAK biochemical assay, JAK2
Chain of JAK2 (O60674 whole entry): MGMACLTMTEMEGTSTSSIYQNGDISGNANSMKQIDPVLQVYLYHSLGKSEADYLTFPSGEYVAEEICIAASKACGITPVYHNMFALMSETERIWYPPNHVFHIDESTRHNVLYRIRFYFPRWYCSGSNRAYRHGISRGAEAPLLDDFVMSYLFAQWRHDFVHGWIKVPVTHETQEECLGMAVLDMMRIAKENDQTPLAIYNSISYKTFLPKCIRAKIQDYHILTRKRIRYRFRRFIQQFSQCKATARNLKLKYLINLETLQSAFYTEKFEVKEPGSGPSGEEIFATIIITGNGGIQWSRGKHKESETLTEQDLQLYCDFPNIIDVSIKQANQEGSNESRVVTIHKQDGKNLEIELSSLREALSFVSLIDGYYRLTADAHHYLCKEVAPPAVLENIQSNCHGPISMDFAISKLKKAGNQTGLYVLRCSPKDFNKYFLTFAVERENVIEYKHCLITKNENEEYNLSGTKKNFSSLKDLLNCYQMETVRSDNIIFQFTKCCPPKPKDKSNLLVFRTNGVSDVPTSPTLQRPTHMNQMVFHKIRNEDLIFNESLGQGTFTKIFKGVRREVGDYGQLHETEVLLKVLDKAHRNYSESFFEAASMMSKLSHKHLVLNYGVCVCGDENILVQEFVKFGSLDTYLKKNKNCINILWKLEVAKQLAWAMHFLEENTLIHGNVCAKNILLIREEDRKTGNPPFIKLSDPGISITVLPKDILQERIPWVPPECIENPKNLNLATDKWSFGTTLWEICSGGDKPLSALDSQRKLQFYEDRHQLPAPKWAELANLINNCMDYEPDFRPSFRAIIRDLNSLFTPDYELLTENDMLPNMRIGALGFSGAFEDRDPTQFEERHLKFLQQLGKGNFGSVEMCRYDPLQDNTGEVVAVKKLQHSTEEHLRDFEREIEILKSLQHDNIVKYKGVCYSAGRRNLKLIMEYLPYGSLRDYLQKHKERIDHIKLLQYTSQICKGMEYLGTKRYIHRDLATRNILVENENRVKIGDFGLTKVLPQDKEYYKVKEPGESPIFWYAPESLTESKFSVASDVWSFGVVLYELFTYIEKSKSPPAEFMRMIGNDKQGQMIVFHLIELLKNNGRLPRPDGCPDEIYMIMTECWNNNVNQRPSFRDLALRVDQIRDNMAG
Protocol: as §1, §2, §3

[2] = test system: IL-13 induced STAT6 phosphorylation in HT-29 human colorectal adenocarcinoma cells; assay: Cellular JAK potency assay: inhibition of IL-13; assay type: cell-based; conditions: HT-29 cells
Protocol: The potency of test compounds for inhibition of the JAK-dependent cytokine interleuken-13 (IL-13) was assessed by measuring IL-13 (IL-13, R&D Systems) induced STAT6 phosphorylation in HT-29 human colorectal adenocarcinoma cells (ATCC).
The anti-STAT6 antibody (Cell Signaling Technologies) was conjugated to AlphaScreen acceptor beads (Perkin Elmer), while the anti-pSTAT6 (pTyr641) antibody (Cell Signaling Technologies) was biotinylated using EZ-Link Sulfo-NHS-Biotin (Thermo Scientific).
HT-29 cells were grown at 37° C. in a 5% CO2 humidified incubator in McCoy's 5a Modified medium (ATCC) supplemented with 10% FBS (Hyclone), 100 U/mL penicillin, 100 μg/mL streptomycin (Life Technologies), and 2 mM GlutaMAX (Life Technologies). On day 1 of the assay, cells were seeded at a 7,500 cells/well density in white poly-D-lysine-coated 384-well plates (Corning) with 25 μL medium, and were allowed to adhere overnight in the incubator. On day 2 of the assay, the medium was removed and replaced with 12 μL of assay buffer (Hank's Balanced Salt Solution/HBSS, 25 mM HEPES, and 1 mg/ml bovine serum albumin/BSA) containing dose-responses of test compounds. Compounds were serially diluted in DMSO and then diluted another 1000-fold in media to bring the final DMSO concentration to 0.1%. Cells were incubated with test compounds at 37° C. for 1 h, and followed by the addition of 12 μl of pre-warmed IL-13 (12 ng/ml in assay buffer) for stimulation. After incubating at 37° C. for 30 min, the assay buffer (containing compound and IL-13) was removed, and 10 μl of cell lysis buffer (25 mM HEPES, 0.1% SDS, 1% NP-40, 5 mM MgCl2, 1.3 mM EDTA, 1 mM EGTA, and supplement with Complete Ultra mini protease inhibitors and PhosSTOP from Roche Diagnostics). The plates were shaken at ambient temperature for 30 min before the addition of detection reagents. A mixture of biotin-anti-pSTAT6 and anti-STAT6 conjugated acceptor beads was added first and incubated at ambient temperature for 2 h, followed by the addition of streptavidin conjugated donor beads (Perkin Elmer). After a minimum of 2 h incubation, the assay plates were read on the EnVision plate reader.
Results were expressed as the negative logarithm of the IC50 value, pIC50.

[3] = Determination of absorption in cannulated rats; assay type: in vivo, Sprague Dawley rats; conditions: rat, oral vs IV dose
Protocol: Oral bioavailability (F %), fraction absorbed (Fa%) and fraction escaping hepatic clearance (Fh%) were determined in Sprague Dawley rats from the following two studies:
(1) Pharmacokinetics in rats following an IV dose of test compound: Following IV dosing, plasma samples were typically collected from 0-6 hr. Drug levels were determined using an LC-MS-MS method. The resulting drug levels were used to compute the IV pharmacokinetic parameters: AUC IV and Dose IV.
(2) Rats that have been cannulated in their portal vein (PV) and also in their jugular vein (JV) were dosed orally with test compound. Following oral dosing, plasma samples were typically collected from 0-6 hr from both the portal vein and the jugular vein. Drug levels were determined using an LC-MS-MS method. The resulting drug levels were used to compute the following pharmacokinetic parameters: AUC PO PV, AUC PO JV, and Dose PO.
Using data derived from the above studies, the oral bioavailability F %, and the quantities Fa% and Fh% were calculated from the following formulas: F%=(AUC PO JV/AUC IV)*(Dose IV/Dose PO)*100 Fa%=(AUC PO PV/AUC IV)*(Dose IV/Dose PO)*100 Fh%=AUC PO JV/AUC PO PV • where: • AUC PO JV=Area under the curve following oral dose and plasma collected from the jugular vein • AUC PO PV=Area under the curve following oral dose and plasma collected from the portal vein • AUC IV=Area under the curve following an intravenous dose • Dose IV=Intravenous Dose in mg/kg • Dose PO=Oral Dose in mg/kg

[4] = test system: TPA-induced increase in ear thickness; assay: Topical TPA-induced irritant contact dermatitis model in mice; assay type: in vivo, Balb/c mice; conditions: 6 hours after TPA
Protocol: The objective of this assay is to assess the anti-inflammatory effect in a model of acute dermatitis of test compounds being studied for cutaneous inflammatory conditions such as atopic dermatitis (Dong et al., J Pharmacol Exp Ther, 2013, 344, 436-446).
Topical dermal application of phorbol ester 12-O-tetradecanoylphorbol-13-acetate (TPA) in mice causes an inflammatory response that is characterized by edema and neutrophil influx at the early phase (2-24 h) and by epidermal cell proliferation at the later phase (24-48 h) (Griffiths et al., Agents and Actions, 1988, 25, 344-351). Female Balb/c mice were topically administered with either vehicle (1:7 DMSO:acetone) or 20 μL of a solution of TPA (2.5 μg) in vehicle on each ear. At 30 min before and 15 min after TPA administration, either vehicle or the compound of Example 2 at doses of 30, 100, 300, 1000, and 3000 μg in vehicle was applied topically to each ear. The degree of inflammation was assessed as the change in ear thickness at 6 hours after TPA application.

[5] = Colon pharmacokinetics in rats; assay type: in vivo, Sprague Dawley rats; conditions: rat, upon oral administration, dose not stated
[6] = test system: mouse splenic NK, B and T cells; conditions: in vivo; for treatment effect on B and T cell populations: po
Protocol: Depletion of mouse splenic cells is an experimental model of immunosuppression (Kudlacz et al., Am. J. of Transplantation, 2004, 4, 51-57). The compound of Example 2 was assessed in the mouse splenic cell model following the same treatment paradigm as that used in the oxazolone-induced colitis model (Assay 8).
The compound (1, 10 and 100 mg/kg, BID) and tofacitinib (30 and 60 mg/kg, BID) as a positive control were dosed orally for three days to naïve mice. Spleens were harvested 1 h post last dose and crushed immediately for cell subtype staining. Prior to fixation, fluorophore-labelled antibodies for CD19 (FITC; B cells), CD3e (PE; pan T cells) and DX5 (APC; NK cells) were incubated with splenocyte samples from each animal to allow for simultaneous, multiple subtype % analysis on the flow cytometer. The number of total spleen cells for each animal was measured by Scepter™ 2.0 Handheld Automated Cell Counter.
The absolute number of lymphocyte subtype population (e.g., splenic B, T and NK cells) was calculated from the percentage of each subtype times total spleen cells for each animal. A one way ANOVA, with Dunnett's post hoc test, was used to compare the splenic lymphocytes number of the vehicle and test compound groups. The a level was set at p<0.05. Data were presented as the mean±SEM for each group.

[7] = in vivo
Text: The objective of this assay was to determine the epidermal, dermal and plasma pharmacokinetics of a test compound following a 24 hr exposure to intact mouse or mini-pig skin.
Twenty-four hours prior to dosing the hair was shaved from the back of 25 g male Balb/c mice exposing an area at of least 6 cm^2 (about 10% of body surface) and, in a separate experiment, of 10 kg Gottingen mini-pigs exposing an area of at least 450 cm^2 (about 10% of body surface). […] The skin was covered with an adhesive cover to prevent loss of compound to the cage or bedding.
Following 24 h exposure, the backs were gently washed with soap and water to remove non-absorbed drug and patted dry. Immediately following this washing, blood was drawn by cardiac puncture from the mice and via venipuncture from the mini-pigs. The outer skin (stratum corneum) was then removed by adhesive tape stripping. Upon exposure of the epidermis a 0.5 cm punch biopsy was taken. The epidermis and dermis were quickly separated, weighed and snap frozen.

Chain of JAK3 (P52333 whole entry): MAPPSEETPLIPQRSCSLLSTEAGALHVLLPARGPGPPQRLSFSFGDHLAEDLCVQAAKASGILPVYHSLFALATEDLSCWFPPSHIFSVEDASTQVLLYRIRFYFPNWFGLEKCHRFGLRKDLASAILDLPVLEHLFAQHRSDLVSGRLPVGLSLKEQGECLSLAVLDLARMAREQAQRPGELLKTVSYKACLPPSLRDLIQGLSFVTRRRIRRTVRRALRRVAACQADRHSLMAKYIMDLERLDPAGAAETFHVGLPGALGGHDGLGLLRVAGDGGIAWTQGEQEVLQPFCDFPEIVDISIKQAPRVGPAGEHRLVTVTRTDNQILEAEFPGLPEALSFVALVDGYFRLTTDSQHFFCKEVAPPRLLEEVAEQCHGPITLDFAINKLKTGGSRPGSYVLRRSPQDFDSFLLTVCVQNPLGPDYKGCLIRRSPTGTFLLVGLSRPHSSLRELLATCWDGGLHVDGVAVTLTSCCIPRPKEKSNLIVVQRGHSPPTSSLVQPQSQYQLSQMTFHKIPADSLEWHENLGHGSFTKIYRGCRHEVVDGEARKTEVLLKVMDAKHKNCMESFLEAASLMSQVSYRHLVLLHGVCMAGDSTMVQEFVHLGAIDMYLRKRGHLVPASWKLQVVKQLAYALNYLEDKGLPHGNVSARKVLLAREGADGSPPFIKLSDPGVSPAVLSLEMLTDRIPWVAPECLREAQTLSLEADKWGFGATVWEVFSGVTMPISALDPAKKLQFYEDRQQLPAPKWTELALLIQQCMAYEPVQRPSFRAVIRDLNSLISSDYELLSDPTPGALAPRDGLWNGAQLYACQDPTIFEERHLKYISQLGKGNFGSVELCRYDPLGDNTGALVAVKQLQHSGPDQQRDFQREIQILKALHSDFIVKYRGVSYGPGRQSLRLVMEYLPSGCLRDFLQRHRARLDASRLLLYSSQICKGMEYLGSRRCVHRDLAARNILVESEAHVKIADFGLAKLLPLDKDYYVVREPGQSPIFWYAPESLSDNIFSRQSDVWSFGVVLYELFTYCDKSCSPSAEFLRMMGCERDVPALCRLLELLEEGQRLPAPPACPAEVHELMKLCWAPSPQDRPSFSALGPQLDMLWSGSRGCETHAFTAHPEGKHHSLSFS

For `COc1cc(Nc2cc(CO)[nH]n2)nc(N(C)[C@@H]2C[C@H]3CC[C@@H](C2)N3S(=O)(=O)N2CC(C#N)C2)n1` [Example 1, 1-(((1R,3s,5S)-3-((4-((5-(Hydroxymethyl)-1H-pyrazol-3-yl)amino)-6-methoxypyrimidin-2-yl)(methyl)amino)-8-azabicyclo[3.2.1]octan-8-yl)sulfonyl)azetidine-3-carbonitrile], the “JAK 3 (pKi)” value (JAK3) was “C (C represents a pKi value between 8 and 9 (Ki between 10 nM and 1 nM))”, the “decrease in DAI score as compared with vehicle treated animals” value (from here on “decrease in DAI score”) [1] was “did not exhibit a statistically significant decrease” and the “Tyk 2 (pKi)” value (Tyk2) was “B (B represents a pKi value between 9 and 10 (Ki between 1 nM and 0.1 nM))”. For the same molecule, the “JAK 1 (pKi)” value (JAK1) was “A (A represents a pKi value ≥10 (Ki≤0.1 nM))”, the “JAK 2 (pKi)” value (JAK2) was “A (A represents a pKi value ≥10 (Ki≤0.1 nM))” and the “HT-29 (pIC50)” value [2] was “B (B represents a pIC50 value between 6.7 and 7.5 (IC50 between 200 nM and 32 nM))”. For the same molecule, the “oral bioavailability (F %)” value ([3]; jugular vein) was “less than 5%” and the “absorption at the portal vein (Fa%)” value [3] was “less than 25%”.
In the case of `COc1cc(Nc2cc(CO)[nH]n2)nc(N(C)[C@@H]2C[C@H]3CCC[C@@H](C2)N3S(=O)(=O)N2CC(C#N)C2)n1` [Example 2, 1-(((1R,3s,5S)-3-((4-((5-(Hydroxymethyl)-1H-pyrazol-3-yl)amino)-6-methoxypyrimidin-2-yl)(methyl)amino)-9-azabicyclo[3.3.1]nonan-9-yl)sulfonyl)azetidine-3-carbonitrile], the “inhibition of TPA-induced increase in ear thickness” value ([4]; topical 30-3000 μg per ear) is reported as “dose- and concentration-dependent effect; also recorded: dose- and concentration-dependent inhibition”, the “maximum statistically significant inhibition of TPA-induced increase in ear thickness” value ([4]; topical, 1000 μg dose) is reported as 41% and the “decrease in DAI score” value [1] is reported as “demonstrated activity; also recorded: statistically significant decrease”. For the same molecule, the “ratio of exposure in the colon to exposure in plasma” value [5] was “greater than 250”, the effect of immunosuppression [6] was “minimal effect of immunosuppression” and the “treatment effect on B and T cell populations” value [6] was “No treatment effect”. The “duration of sustained dermal levels” value ([7]; Gottingen, minipig) was “at least 7 days”, the “duration of sustained dermal levels” value ([7]; male, Balb/c, mouse) was “at least 2 days” and the “absorption at the portal vein (Fa%)” value [3] was “less than 25%”.
In the case of `C[C@@H]1CCN(C(=O)CC#N)C[C@@H]1N(C)c1ncnc2[nH]ccc12` [tofacitinib, reference compound], the “treatment effect on B and T cell populations” value [6] is reported as “No treatment effect”.
With `COCCS(=O)(=O)N1[C@@H]2CCC[C@H]1C[C@H](N(C)c1nc(Nc3cc(CO)[nH]n3)cc(OC)n1)C2` [Example 4, (3-((6-methoxy-2-(((1R,3s,5S)-9-((2-methoxyethyl)sulfonyl)-9-azabicyclo[3.3.1]nonan-3-yl)(methyl)amino)pyrimidin-4-yl)amino)-1H-pyrazol-5-yl)methanol] the “decrease in DAI score” value [1] was “statistically significant decrease” and the “absorption at the portal vein (Fa%)” value [3] was “greater than 40%”.
